# Legend:
# RLK/TXK = RLK/TXK (Homo sapiens (Human), UniProt P42681); experiment: RLK/TXK kinase inhibition assay; assay type: biochemical; conditions: micro-fluidic detection, 3 hours at 25° C.
# Method: The in vitro kinase assays were performed at Nanosyn utilizing micro-fluidic detection technology. The test compounds were serially pre-diluted in DMSO and added, by the acoustic dispensing (Labcyte® 550), directly to 384well assay plates into 10 uL of a buffer with enzyme comprising: 100 mM HEPES, pH7.5, 5 mM MgCl2, 0.1% bovine serum albumin, 1 mM DTT, 0.01% Triton X-100 and the enzyme. Final DMSO concentration was maintained at 1% in all samples, including the controls. The reactions were initiated by addition of ATP (to the specified concentration) and the fluorescently labeled peptide substrate to a final concentration of 1 uM, and incubated for 3 hours at 25° C. Following incubation, the reactions were quenched by addition of 40 μL of termination buffer (100 mM HEPES, pH7.5, 0.01% Triton X-100, 50 mM EDTA). Terminated plates were analyzed using Caliper LabChip® 3000 microfluidic electrophoresis instrument (Caliper Life Sciences/Perkin Elmer). The enzymatic modification of the peptide substrate (phosphorylation) results in a change of net charge enabling electrophoretic separation of product from substrate. As substrate and product are separated by electrophoresis, two peaks of fluorescence are observed. Change in the relative fluorescence intensity of the substrate and product peaks was the parameter measured, reflecting enzyme activity. In the presence of inhibitor, the ratio between product and substrate is altered: signal of the product decreases, while the signal of the substrate increases. Activity in each test sample was determined as the product to sum ratio (PSR): P/(S+P), where P is the peak height of the product and S is the peak height of the […]. For each compound, enzyme activity was measured at 12 concentrations spaced by 3× dilution intervals. Negative control samples (0%-inhibition in the absence of inhibitor, DMSO only) and positive control samples (100%-inhibition, in the absence of enzyme or in the presence of control inhibitor) were assembled in replicates of four and were used to calculate %-inhibition values in the presence of compounds. Percent inhibition (Pinh) was determined using the following equation: Pinh=(PSR0%−PSRinh)/(PSR0%−PSR100%)*100, where PSRinh is the product sum ratio in the presence of inhibitor, PSR0% is the product sum ratio in the absence of inhibitor and PSR100% is the product sum ratio in 100%-inhibition control samples. To determine IC50 values, the inhibition curves (Pinh versus inhibitor concentration) were fitted by 4 parameter sigmoid dose-response model using XLfit software (IDBS).
# [1] = test system: Jurkat human acute T cell leukemia cells; experiment: Jurkat IL-2 release assay; assay type: cell-based; conditions: IL-2 release from Jurkat cells stimulated with anti-CD3 and anti-CD28, 48 hours, ELISA
# Outline: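 Jurkat cells were pre-treated with compound curves 30 min at 37°C, then stimulated on plate-bound anti-CD3 (coated at 10 μg/mL) plus 1 μg/mL soluble anti-CD28 for 48 h. IL-2 in supernatant quantified by ELISA; EC50 from dose-response against vehicle-treated controls.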
# Sequence of RLK/TXK (P42681 whole entry): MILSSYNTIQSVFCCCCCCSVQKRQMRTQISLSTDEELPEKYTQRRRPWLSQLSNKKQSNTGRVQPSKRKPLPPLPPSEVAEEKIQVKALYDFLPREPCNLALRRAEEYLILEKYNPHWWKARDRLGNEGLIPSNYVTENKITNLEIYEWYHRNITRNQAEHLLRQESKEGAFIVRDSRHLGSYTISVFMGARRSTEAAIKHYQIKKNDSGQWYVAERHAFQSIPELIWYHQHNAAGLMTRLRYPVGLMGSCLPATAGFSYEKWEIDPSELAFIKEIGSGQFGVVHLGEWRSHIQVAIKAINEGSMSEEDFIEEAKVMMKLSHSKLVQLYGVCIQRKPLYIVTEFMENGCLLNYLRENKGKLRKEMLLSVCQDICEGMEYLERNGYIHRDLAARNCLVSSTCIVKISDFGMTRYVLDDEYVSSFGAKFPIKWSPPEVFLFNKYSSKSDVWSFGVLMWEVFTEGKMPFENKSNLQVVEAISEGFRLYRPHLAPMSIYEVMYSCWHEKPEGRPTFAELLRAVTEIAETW
smiles,measurement,setting,value
C=CC(=O)Nc1cccc(-n2c(NC(=O)c3ccc(C(F)F)s3)nc3cc(CN[C@@H](C)C(C)(C)C)ccc32)c1 [Compound 2],EC50,RLK/TXK,< 0.01 µM
same,EC50,[1],< 0.01 µM
C=CC(=O)Nc1cccc(-n2c(NC(=O)c3cccc(C#N)c3)nc3cc(CN[C@@H](C)C(C)(C)C)ccc32)c1 [Compound 9],EC50,RLK/TXK,< 0.01 µM
same,EC50,[1],0.01 to 0.1 µM
C=CC(=O)Nc1cccc(-n2c(NC(=O)c3ccc(-c4cnco4)s3)nc3cc(CN[C@@H](C)C(C)(C)C)ccc32)c1 [Compound 25],EC50,RLK/TXK,< 0.01 µM
same,EC50,[1],< 0.01 µM
C=CC(=O)Nc1cccc(-n2c(NC(=O)c3ccnn3C)nc3cc(CN[C@@H](C)C(C)(C)C)ccc32)c1 [Compound 28],EC50,RLK/TXK,< 0.01 µM
same,EC50,[1],< 0.01 µM
C=CC(=O)Nc1cccc(-n2c(NC(=O)c3ccno3)nc3cc(CN[C@@H](C)C(C)(C)C)ccc32)c1 [Compound 38],EC50,RLK/TXK,< 0.01 µM
same,EC50,[1],< 0.01 µM

# — patent US10562893B2, “Benzimidazoles derivatives as Tec kinases family inhibitors” (GB005, Inc., priority 2015, dated 2020)
